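Compound exposure: 48 hours, 5 concentrations, 96-well plates. Here, GI50 denotes the concentration required for 50% inhibition of growth. Definition used: TGI = concentration required for complete inhibition of growth.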

Among the test systems are A498 renal; ACHN renal; COLO 205 colon; HCC-2998 colon; KM12 colon; NCI-H23 lung; NCI-H460 lung; OVCAR-3 ovarian; SF-539 CNS; UO-31 renal.
Holding throughout (experiment): NCI tumour cell line growth inhibition, 48 h

Regarding `COc1ccc(/C=C(\C#N)n2nnc3cc(Cl)ccc32)cc1`, the GI50 with A498 renal is 0.201 µM; in the assay on ACHN renal, 0.593 µM; with COLO 205 colon it was 0.513 µM; in the assay on HCC-2998 colon, 1.87 µM; in the assay with KM12 colon, 1.33 µM; in the assay on NCI-H23 lung it was 1.67 µM. Besides, the GI50 was 2.83 µM in the assay with NCI-H460 lung, 0.253 µM in the assay with OVCAR-3 ovarian, 1.25 µM in the assay on SF-539 CNS and 2.2 µM with UO-31 renal. Moreover, the TGI was 3.11 µM in the assay with A498 renal; above 43.5 µM in the assay on ACHN renal; 7.01 µM in the assay on COLO 205 colon; 8.14 µM in the assay on HCC-2998 colon; 37.1 µM in the assay with KM12 colon; above 33.6 µM with NCI-H23 lung. For the same molecule, the TGI with NCI-H460 lung was above 56.6 µM; in the assay on OVCAR-3 ovarian, 0.695 µM; in the assay on SF-539 CNS it was 3.5 µM; in the assay on UO-31 renal, 32.4 µM.
As for `COC(=O)[C@H](C)[C@H]1CC[C@@](C)([C@H]2CC3C(C)(C)[C@H]4CCC(C)=C[C@H]4C[C@@]3(C)O2)OO1` (stereo not given in full), the TGI in the assay on A498 renal is 24.1 µM; with ACHN renal, 23.4 µM; in the assay on COLO 205 colon, 23.8 µM; in the assay on HCC-2998 colon, 18.7 µM; in the assay on KM12 colon, 25.7 µM; with NCI-H23 lung, 23.6 µM. In addition, the TGI came out at 4.62 µM in the assay on NCI-H460 lung, 27.7 µM in the assay on OVCAR-3 ovarian, 28.4 µM in the assay on SF-539 CNS and 19.2 µM with UO-31 renal.
`CCC12CCC(O)C1N(C)CCC2Sc1ccccc1` (stereo not given): the TGI is above 100 µM with A498 renal; above 100 µM in the assay with ACHN renal; above 100 µM with COLO 205 colon; 94.8 µM in the assay on HCC-2998 colon; above 100 µM in the assay on KM12 colon; above 100 µM in the assay on NCI-H23 lung. Besides, the TGI in the assay on NCI-H460 lung, in the assay with OVCAR-3 ovarian, in the assay on SF-539 CNS and with UO-31 renal was above 100 µM throughout.
For the molecule `NC(=O)c1csc(C2O[C@@H](COP(=O)(O)OP(=O)(O)OC[C@H]3OC(n4cnc5c(N)ncnc54)[C@H](O)[C@@H]3O)[C@H](O)[C@@H]2O)n1` (stereo not given in full), the TGI in the assay with A498 renal, in the assay on ACHN renal, in the assay on COLO 205 colon, in the assay with HCC-2998 colon, in the assay on KM12 colon and with NCI-H23 lung was above 100 µM in each case. In addition, the TGI with NCI-H460 lung, in the assay on OVCAR-3 ovarian, in the assay with SF-539 CNS and in the assay with UO-31 renal was above 100 µM in each case.
Consider `O=C1NC(=O)C2=C1CCC2O` (stereo not given), for which the TGI in the assay on A498 renal, with ACHN renal, in the assay with COLO 205 colon, in the assay on HCC-2998 colon, in the assay with KM12 colon and in the assay on NCI-H23 lung was above 100 µM in each case. The TGI in the assay on NCI-H460 lung, in the assay with OVCAR-3 ovarian, in the assay on SF-539 CNS and in the assay on UO-31 renal was above 100 µM in each case.
With `COC(=O)c1ccc(-c2nc3cc(F)c(F)cc3nc2C#N)cc1`, the GI50 in the assay on A498 renal is 14.4 µM; in the assay with ACHN renal, 11.5 µM; with COLO 205 colon, 13 µM; in the assay on HCC-2998 colon, 8.41 µM; in the assay on KM12 colon, 31.4 µM; in the assay with NCI-H23 lung, 9.12 µM. The GI50 in the assay on NCI-H460 lung is 9.86 µM; in the assay with OVCAR-3 ovarian, 1.71 µM; in the assay with SF-539 CNS, 10.7 µM; in the assay on UO-31 renal, 11.2 µM. Moreover, the TGI came out at 23.9 µM with A498 renal; 26.3 µM in the assay with ACHN renal; 33.2 µM in the assay on COLO 205 colon; 16.1 µM in the assay on HCC-2998 colon; 50 µM with KM12 colon; 17 µM in the assay with NCI-H23 lung. In addition, the TGI in the assay on NCI-H460 lung was found to be 19.2 µM; in the assay on OVCAR-3 ovarian it was 4.99 µM; in the assay with SF-539 CNS it was 18.7 µM; in the assay on UO-31 renal it was 33.5 µM.
With `COc1ccc2c(CN3CCC(CO)CC3)cc3cc4c(cc3c2c1)OCO4`, the GI50 is 0.211 µM with A498 renal; 0.0825 µM in the assay on ACHN renal; 0.122 µM with COLO 205 colon; 0.194 µM in the assay with HCC-2998 colon; 0.28 µM with KM12 colon; 0.298 µM with NCI-H23 lung. Moreover, the GI50 in the assay with NCI-H460 lung is 0.143 µM; in the assay with OVCAR-3 ovarian, 0.316 µM; in the assay with SF-539 CNS it was 0.254 µM; with UO-31 renal it was 0.252 µM. Also, the TGI in the assay with A498 renal turned out to be 0.554 µM; with ACHN renal it was 0.45 µM; in the assay with COLO 205 colon, 1.07 µM; in the assay on HCC-2998 colon it was 1.41 µM; in the assay on KM12 colon, 4.34 µM; in the assay with NCI-H23 lung, 1.5 µM. Besides, the TGI with NCI-H460 lung amounted to 3.21 µM; in the assay on OVCAR-3 ovarian it was 3.39 µM; with SF-539 CNS, 1.64 µM; with UO-31 renal, 19 µM.
Turning to `COc1ccc(/C=C/C(=O)/C=C(/C=C/c2ccc(OC)c(OC)c2)OB(F)F)cc1OC`, the GI50 is 1.83 µM in the assay on A498 renal; 0.352 µM in the assay on ACHN renal; 0.37 µM with COLO 205 colon; 2.02 µM in the assay on HCC-2998 colon; 1.78 µM with KM12 colon; 1.33 µM in the assay on NCI-H23 lung. Moreover, the GI50 with NCI-H460 lung is 1.68 µM; in the assay with OVCAR-3 ovarian it was 0.324 µM; in the assay with SF-539 CNS, 1.18 µM; with UO-31 renal it was 0.652 µM. The TGI is 5.12 µM with A498 renal; 1.98 µM with ACHN renal; 1.57 µM in the assay with COLO 205 colon; 4.17 µM in the assay on HCC-2998 colon; 3.95 µM in the assay with KM12 colon; 4.17 µM in the assay on NCI-H23 lung. In addition, the TGI with NCI-H460 lung stood at 4.58 µM; with OVCAR-3 ovarian it was 1.04 µM; in the assay on SF-539 CNS, 3.63 µM; in the assay on UO-31 renal it was 3.72 µM.
On to `Cc1ccc(C2=[N+]([O-])c3ccccc3C2=O)cc1`, for which the TGI with A498 renal was above 100 µM; in the assay on ACHN renal, 32 µM; in the assay on COLO 205 colon, above 72.8 µM; with HCC-2998 colon it was above 100 µM; in the assay with KM12 colon, 50.9 µM; with NCI-H23 lung, above 31.6 µM. Further, the TGI in the assay with NCI-H460 lung is above 100 µM; with OVCAR-3 ovarian, 32.2 µM; in the assay on SF-539 CNS, 77.7 µM; with UO-31 renal, above 87.9 µM.

For the origin of these results see PubChem BioAssay (NCI).
